Like-named read-outs stand apart in the source and are kept apart here.

Assay in all cases: biochemical
Design in all cases: DiscoveRx KINOMEscan active site-directed competition binding; percent of control kinase bound to immobilised ligand

Experiment [1] has as its target CDK4 (Homo sapiens, UniProt P11802).
The target in experiment [2] is T1, FLT3(D835H) (Homo sapiens, UniProt P36888, D835H).
T1 sequence (P36888 1-993 D835H): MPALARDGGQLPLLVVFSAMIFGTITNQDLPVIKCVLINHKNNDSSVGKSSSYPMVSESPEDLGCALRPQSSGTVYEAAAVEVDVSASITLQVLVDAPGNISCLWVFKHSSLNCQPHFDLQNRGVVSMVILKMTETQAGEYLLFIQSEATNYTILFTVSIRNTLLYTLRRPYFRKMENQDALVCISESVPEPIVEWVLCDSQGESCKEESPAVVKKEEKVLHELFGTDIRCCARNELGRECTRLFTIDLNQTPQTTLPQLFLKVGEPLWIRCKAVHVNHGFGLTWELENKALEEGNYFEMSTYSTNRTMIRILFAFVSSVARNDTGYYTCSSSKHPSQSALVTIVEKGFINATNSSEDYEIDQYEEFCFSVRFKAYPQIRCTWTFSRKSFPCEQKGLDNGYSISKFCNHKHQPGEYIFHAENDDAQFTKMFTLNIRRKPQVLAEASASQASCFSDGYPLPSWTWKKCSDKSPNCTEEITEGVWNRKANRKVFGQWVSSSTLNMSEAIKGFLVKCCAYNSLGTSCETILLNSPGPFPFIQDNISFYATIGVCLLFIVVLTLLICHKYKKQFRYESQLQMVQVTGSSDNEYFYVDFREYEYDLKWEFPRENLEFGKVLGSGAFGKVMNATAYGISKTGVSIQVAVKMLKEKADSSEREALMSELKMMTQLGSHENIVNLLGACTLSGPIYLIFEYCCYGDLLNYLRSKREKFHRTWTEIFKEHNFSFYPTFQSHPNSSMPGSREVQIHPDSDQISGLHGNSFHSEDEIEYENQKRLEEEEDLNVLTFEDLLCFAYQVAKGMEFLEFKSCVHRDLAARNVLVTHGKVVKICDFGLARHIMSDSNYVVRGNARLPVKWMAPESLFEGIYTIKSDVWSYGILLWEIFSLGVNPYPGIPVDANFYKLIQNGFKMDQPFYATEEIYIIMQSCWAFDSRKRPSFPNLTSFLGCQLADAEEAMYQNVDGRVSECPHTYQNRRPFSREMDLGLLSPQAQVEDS

Experiment [3] concerns the target KIT(V559D) (Homo sapiens, UniProt P10721, V559D).
The target in experiment [4] is T2, MYO3B (Homo sapiens, UniProt Q8WXR4).
T2 sequence (Q8WXR4 1-1341): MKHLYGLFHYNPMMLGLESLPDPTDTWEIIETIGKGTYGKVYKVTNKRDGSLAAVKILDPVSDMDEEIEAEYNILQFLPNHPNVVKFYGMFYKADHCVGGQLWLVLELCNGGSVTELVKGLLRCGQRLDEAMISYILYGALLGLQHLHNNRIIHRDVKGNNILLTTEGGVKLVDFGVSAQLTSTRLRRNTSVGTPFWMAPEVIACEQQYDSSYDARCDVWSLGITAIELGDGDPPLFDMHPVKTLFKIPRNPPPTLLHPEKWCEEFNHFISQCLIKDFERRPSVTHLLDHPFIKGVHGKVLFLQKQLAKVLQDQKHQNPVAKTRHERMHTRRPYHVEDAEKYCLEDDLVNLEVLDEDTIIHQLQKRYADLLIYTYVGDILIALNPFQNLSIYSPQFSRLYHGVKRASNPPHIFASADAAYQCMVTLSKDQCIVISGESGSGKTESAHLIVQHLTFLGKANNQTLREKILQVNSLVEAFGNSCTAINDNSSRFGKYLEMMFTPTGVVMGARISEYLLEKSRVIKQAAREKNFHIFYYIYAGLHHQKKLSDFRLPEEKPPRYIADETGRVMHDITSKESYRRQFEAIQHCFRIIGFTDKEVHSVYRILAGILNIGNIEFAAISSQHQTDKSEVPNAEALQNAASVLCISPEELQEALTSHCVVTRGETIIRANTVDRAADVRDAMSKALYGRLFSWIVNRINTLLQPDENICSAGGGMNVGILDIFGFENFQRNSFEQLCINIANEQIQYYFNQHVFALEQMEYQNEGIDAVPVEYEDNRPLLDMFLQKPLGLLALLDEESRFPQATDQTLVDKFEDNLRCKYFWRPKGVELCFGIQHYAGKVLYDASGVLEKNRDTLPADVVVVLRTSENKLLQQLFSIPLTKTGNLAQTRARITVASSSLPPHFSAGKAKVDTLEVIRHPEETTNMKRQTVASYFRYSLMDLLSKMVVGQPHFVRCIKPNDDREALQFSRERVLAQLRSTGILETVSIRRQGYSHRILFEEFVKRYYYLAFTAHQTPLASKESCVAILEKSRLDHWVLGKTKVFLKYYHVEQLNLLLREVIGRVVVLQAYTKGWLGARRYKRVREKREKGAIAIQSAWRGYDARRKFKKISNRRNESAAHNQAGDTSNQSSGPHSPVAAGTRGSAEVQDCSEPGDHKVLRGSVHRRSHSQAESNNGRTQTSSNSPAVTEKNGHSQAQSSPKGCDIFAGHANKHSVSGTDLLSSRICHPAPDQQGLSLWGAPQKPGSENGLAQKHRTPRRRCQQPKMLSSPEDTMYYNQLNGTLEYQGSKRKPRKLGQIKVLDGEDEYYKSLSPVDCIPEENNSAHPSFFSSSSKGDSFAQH

For experiment [5], the target named is T3, RSK4(Kin.Dom.1-N-terminal) (Homo sapiens, UniProt Q9UK32).
T3 construct: gene RPS6KA6; Kin.Dom.1-N-terminal

Setting [6] is: read-out: Niraparib (MK-4827) / %Ctrl @ 10000nM.
[7] abbreviates: read-out: Olaparib / %Ctrl @ 10000nM.
Setting [8] is: read-out: Rucaparib / %Ctrl @ 10000nM, binding competition, % of control.
The mark [9] stands for this setting: read-out: Talazoparib (BMN 673) / %Ctrl @ 10000nM.

Chain of KIT(V559D) (P10721 whole entry V559D): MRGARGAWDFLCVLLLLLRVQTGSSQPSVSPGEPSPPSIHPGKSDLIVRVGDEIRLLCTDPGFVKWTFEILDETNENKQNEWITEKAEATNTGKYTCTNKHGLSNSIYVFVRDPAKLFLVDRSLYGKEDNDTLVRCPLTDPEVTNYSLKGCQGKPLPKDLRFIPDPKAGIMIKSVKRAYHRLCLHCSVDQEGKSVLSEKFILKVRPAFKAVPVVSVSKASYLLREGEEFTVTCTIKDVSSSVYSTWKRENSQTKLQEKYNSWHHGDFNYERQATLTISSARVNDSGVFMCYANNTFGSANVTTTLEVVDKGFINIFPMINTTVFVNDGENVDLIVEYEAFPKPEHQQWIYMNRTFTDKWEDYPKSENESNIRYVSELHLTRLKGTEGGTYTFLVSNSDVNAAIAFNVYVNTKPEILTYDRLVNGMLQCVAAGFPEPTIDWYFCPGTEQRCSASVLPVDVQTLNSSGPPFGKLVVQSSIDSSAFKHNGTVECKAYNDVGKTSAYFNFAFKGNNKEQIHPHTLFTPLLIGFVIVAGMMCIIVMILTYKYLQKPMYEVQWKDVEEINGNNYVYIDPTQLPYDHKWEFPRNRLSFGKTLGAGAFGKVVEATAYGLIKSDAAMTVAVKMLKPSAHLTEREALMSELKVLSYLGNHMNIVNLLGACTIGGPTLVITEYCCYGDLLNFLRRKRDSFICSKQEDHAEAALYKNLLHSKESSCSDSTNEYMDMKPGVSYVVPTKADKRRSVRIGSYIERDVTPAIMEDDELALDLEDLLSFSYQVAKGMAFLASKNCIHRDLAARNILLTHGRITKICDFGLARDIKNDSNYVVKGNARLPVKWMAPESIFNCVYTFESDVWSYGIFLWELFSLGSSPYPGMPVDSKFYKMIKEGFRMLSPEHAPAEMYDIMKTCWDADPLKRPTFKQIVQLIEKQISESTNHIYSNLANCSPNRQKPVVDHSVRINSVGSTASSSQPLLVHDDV
T3 sequence (Q9UK32 whole entry): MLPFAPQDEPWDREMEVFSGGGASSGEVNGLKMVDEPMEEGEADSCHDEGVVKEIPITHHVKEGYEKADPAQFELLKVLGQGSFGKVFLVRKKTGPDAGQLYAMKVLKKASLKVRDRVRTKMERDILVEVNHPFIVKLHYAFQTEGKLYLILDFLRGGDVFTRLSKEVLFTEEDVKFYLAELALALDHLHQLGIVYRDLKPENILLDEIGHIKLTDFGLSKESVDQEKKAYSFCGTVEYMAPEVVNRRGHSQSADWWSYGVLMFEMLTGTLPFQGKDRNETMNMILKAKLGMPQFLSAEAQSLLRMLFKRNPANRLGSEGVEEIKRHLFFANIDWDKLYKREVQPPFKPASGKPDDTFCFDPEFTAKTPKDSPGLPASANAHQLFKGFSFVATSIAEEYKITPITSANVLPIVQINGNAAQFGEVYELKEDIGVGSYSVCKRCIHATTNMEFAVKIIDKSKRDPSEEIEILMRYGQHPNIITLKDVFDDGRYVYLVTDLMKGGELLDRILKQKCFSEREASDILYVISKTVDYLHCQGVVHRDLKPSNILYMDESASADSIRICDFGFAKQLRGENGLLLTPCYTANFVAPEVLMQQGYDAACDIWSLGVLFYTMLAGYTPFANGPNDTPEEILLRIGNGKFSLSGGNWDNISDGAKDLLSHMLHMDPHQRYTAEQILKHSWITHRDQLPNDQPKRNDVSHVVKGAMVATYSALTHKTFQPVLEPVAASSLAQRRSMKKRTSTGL
Chain of CDK4 (P11802 whole entry): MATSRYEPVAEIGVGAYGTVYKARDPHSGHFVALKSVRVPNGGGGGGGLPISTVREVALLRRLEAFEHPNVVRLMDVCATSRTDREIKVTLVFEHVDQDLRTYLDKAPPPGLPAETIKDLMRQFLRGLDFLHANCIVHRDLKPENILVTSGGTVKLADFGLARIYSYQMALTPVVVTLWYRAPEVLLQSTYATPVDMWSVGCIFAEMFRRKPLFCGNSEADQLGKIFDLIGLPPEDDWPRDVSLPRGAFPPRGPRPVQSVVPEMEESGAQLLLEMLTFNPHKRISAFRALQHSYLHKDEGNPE

As to `NC(=O)c1cccc2cn(-c3ccc([C@@H]4CCCNC4)cc3)nc12` [Niraparib], the percent of control binding at 10 µM was found to be 100% in experiment [1] (setting [6]); 83% in experiment [2] (setting [6]); 90% in experiment [3] (setting [6]); 56% in experiment [4] (setting [6]); 100% in experiment [5] (setting [6]).

Turning to `O=C(c1cc(Cc2n[nH]c(=O)c3ccccc23)ccc1F)N1CCN(C(=O)C2CC2)CC1` [Olaparib], the percent of control binding at 10 µM in experiment [1] (setting [7]) worked out at 85%; in experiment [2] (setting [7]) it was 91%; in experiment [3] (setting [7]), 100%; in experiment [4] (setting [7]), 75%; in experiment [5] (setting [7]), 76%.

`CNCc1ccc(-c2[nH]c3cc(F)cc4c3c2CCNC4=O)cc1` [Rucaparib]: the percent of control binding at 10 µM was 94% in experiment [1] (setting [8]), 92% in experiment [3] (setting [8]), 62% in experiment [4] (setting [8]) and 63% in experiment [5] (setting [8]). Also, the “Rucaparib / %Ctrl @ 10000nM” value in experiment [2] (binding competition, % of control) is reported as 42%.

Regarding `Cn1ncnc1[C@H]1c2n[nH]c(=O)c3cc(F)cc(c23)N[C@@H]1c1ccc(F)cc1` [Talazoparib], the percent of control binding at 10 µM in experiment [1] (setting [9]) was found to be 100%; in experiment [2] (setting [9]) it was 89%; in experiment [3] (setting [9]) it was 100%; in experiment [4] (setting [9]), 97%; in experiment [5] (setting [9]), 99%.
